Results as given in paper PMC13112199 (Nature nanotechnology, 2025).
Entries after “also recorded” stand apart in the source; their conditions may differ.

Legend:
[1] = UPLC in vitro release assay of small molecules from MDP hydrogels; format: physicochemical
[2] = UV–vis stability of dynamic covalent bonding motifs in solution; conditions: pH 7.4 PBS, over 15 days
[3] = Boronate ester association; format: physicochemical; conditions: SHA vs catechol, across boronic acids
[4] = female, BALB/c, mouse, in vivo, sc
[5] = Bortezomib pharmacokinetics after subcutaneous injection; conditions: 175 ng sc, alone without hydrogel
[6] = high doses; cited from earlier work
M. tuberculosis H37Rv = experiment: Mouse model of acute tuberculosis, lung CFU counts; format: in vivo, Mycobacterium tuberculosis; conditions: for reduction of colony-forming units in lungs: 600 μg single sc injection without hydrogel; for reduction in bacterial burden compared with vehicle control: ten oral doses of 60 μg
[7] = Ganfeborole pharmacokinetics after subcutaneous injection
[8] = Stability of ganfeborole loaded in hydrogels quantified by UPLC; format: physicochemical
blood glucose levels = experiment: Mouse type 1 diabetes model, blood glucose control; format: in vivo; conditions: 3 IU sc without a hydrogel, diabetic mice
[9] = from Cat-K2 hydrogel, first 2 h
[10] = from nitroCat-K2 hydrogel, 24 h
[11] = from unmodified K2 hydrogel, first 2 h, 10 mg ml^-1 peptide, PBS, 37 °C
[12] = 600 μg in SHA-E2, non-compartmental analysis
[13] = 600 μg in SHA-K2 vs drug alone, non-compartmental analysis

Compound: COCCOc1nc(N)c2[nH]c(=O)n(Cc3ccc(C(=O)O)cc3)c2n1 [Compound 1V209]
- in vitro release kinetics from SABER hydrogels ([1]; drug without BA, SABER hydrogels vs K2): no altered release kinetics were observed

Compound: O=C(NO)c1ccccc1O [SHA, salicylhydroxamic acid]
- stability in solution by UV–vis [2]: excellent stability over 15 days in solution
- boronate ester association constant relative to catechol association constants [3]: 6.5- to 9.6 fold

Compound: CC(C)C[C@H](NC(=O)[C@H](Cc1ccccc1)NC(=O)c1cnccn1)B(O)O [bortezomib]
- blood concentration at 336 h relative to peak-matched 175 ng control [4]: 2.7 fold
- maximum concentration [5]: 21.2 ± 3.1 ng/mL
- drug released in vitro [1, 9]: > 57.1%
- glucose dependence of in vitro release ([1]; from SHA-K2, physiologically relevant glucose range): independent of glucose concentration
- drug released in vitro ([1]; from SHA-K2 hydrogel, 2 h): 15–25%
- drug released in vitro ([1]; from SHA-K2 hydrogel, 24 h): 50–70%
- drug released in vitro ([1]; from nitroCat-K2 hydrogel, 2 h): 15–25%
- drug released in vitro [1, 10]: 50–70%
- drug released in vitro [1, 11]: > 82.3%

Compound: NC[C@H]1OB(O)c2c(OCCO)ccc(Cl)c21 [ganfeborole]
- in vitro release rate ([1]; from K2 hydrogel): similarly rapid release rates
- drug released in vitro ([1]; from K2 hydrogel, 30 min): 59.0 ± 1.1%
- in vitro release ([1]; from SHA-E2 hydrogel, loaded at 0.5 mg ml^-1): significantly slowed the release; also recorded: performed similarly to SHA-K2
- drug released in vitro ([1]; from SHA-K2 hydrogel, 24 h): 48.7 ± 2.5%
- in vitro release rate ([1]; from SHA-K2 hydrogel, compared with K2): significantly extend the release
- in vitro release rate ([1]; from nitroCat-K2 hydrogel): similarly rapid release rates
- tolerability in humans [6]: well tolerated in humans at high doses
- bacterial burden reduction compared with oral dosing (M. tuberculosis H37Rv; 600 μg single injection in SHA-E2 vs ten oral doses): ~10 fold
- reduction in bacterial lung burden compared with vehicle control (M. tuberculosis H37Rv; 600 μg single sc injection in SHA-E2, 7 days): 2.58 log10
- reduction in bacterial lung burden compared with vehicle control (M. tuberculosis H37Rv; 600 μg single sc injection in SHA-E2, 14 days): 4.12 log10
- reduction of colony-forming units in lungs (M. tuberculosis H37Rv; 7 days): 0.95 log10
- reduction of colony-forming units in lungs (M. tuberculosis H37Rv; 14 days): 1.55 log10
- reduction in bacterial burden compared with vehicle control (M. tuberculosis H37Rv; 7 days): 1.67 log10
- reduction in bacterial burden compared with vehicle control (M. tuberculosis H37Rv; 14 days): 3.32 log10
- in vivo release ([7]; 75 μg sc in 50 μl of 10 mg ml^-1 K2): unable to prolong drug release in vivo
- duration of concentration above the EC50 relative to other groups ([7]; 75 μg sc in 50 μl of 10 mg ml^-1 SHA-K2, EC50 ref 51): over 4 fold
- in vivo release ([7]; 75 μg sc in 50 μl of 10 mg ml^-1 nitroCat-K2): unable to prolong drug release in vivo
- in vivo release compared with unmodified E2 hydrogel ([7]; 600 μg in 200 μl of 20 mg ml^-1 SHA-E2): prolongs drug release
- enhancement of half-life compared with ganfeborole alone ([7]; 600 μg in SHA-E2): over 10 fold
- effect on Cmax [7, 12]: reduces the maximum circulating concentration
- effect on drug exposure (AUC) [7, 12]: improves drug exposure
- effect on Cmax ([7]; 600 μg in SHA-K2 vs drug alone): reducing the maximum drug concentration
- improvement of AUC [7, 13]: 2.8 fold
- increase of half-life [7, 13]: 6.5 fold
- stability of drug loaded in hydrogel ([8]; in Cat-K2): rapid oxidative degradation; also recorded: rapidly degrades the compound
- stability of drug loaded in hydrogel ([8]; in K2, nitroCat-K2 and SHA-K2 (all hydrogels except Cat-K2), two weeks): majority of the drug remains stable over the course of two weeks

Compound: CC(C)C[C@H](NC(=O)CNC(=O)c1cc(Cl)ccc1Cl)B(O)O [ixazomib]
- drug released in vitro [1, 9]: > 57.1%
- drug released in vitro ([1]; from SHA-K2 hydrogel, 2 h): 15–25%
- drug released in vitro ([1]; from SHA-K2 hydrogel, 24 h): 50–70%
- drug released in vitro ([1]; from nitroCat-K2 hydrogel, 2 h): 15–25%
- drug released in vitro [1, 10]: 50–70%
- drug released in vitro [1, 11]: > 82.3%

Compound: OB1OCc2cc(F)ccc21 [tavaborole]
- drug released in vitro ([1]; from Cat-K2 hydrogel, 24 h): 80.0 ± 4.7%
- drug released in vitro ([1]; from SHA-K2 hydrogel, 24 h): 49.1 ± 0.3%
- drug released in vitro [1, 10]: 64.8 ± 0.9%

Compound: insulin: commercially purchased unmodified insulin
- time until mice became hyperglycemic again (blood glucose levels): ≤ 4 h
- time until mice became hyperglycemic again (blood glucose levels; listed as unmodified insulin): less than 4 h
